The compounds below were run against T1, acetylcholine muscarinic M1 receptor (Homo sapiens, UniProt P11229) (assay: muscarinic M1 FLIPR intracellular calcium assay (positive allosteric modulation, EC20 acetylcholine)). Details: inflection point from FLIPR values; CHOnfat/hM1 cells; 4 min preincubation, then EC20 acetylcholine (3 nM final); read-out: IP Value.
T1 construct: expressed in transfected cells; host or cells: CHOnfat (CHO cells expressing NFAT), line CHOnfat/hM1
T1 sequence (P11229 1-460): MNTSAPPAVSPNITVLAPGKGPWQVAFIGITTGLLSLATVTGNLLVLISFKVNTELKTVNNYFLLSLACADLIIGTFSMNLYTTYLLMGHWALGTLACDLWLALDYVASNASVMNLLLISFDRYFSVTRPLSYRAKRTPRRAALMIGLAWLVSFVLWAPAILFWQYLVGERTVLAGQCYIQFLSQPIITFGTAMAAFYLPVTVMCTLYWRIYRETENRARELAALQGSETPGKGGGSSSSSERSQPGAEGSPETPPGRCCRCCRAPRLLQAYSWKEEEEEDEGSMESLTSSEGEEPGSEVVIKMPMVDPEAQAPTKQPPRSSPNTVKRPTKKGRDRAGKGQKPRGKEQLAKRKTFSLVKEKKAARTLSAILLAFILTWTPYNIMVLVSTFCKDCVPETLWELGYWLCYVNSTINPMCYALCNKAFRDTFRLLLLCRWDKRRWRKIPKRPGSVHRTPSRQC
Format: cell-based
Experimental: The assay studies the effect of one or several concentrations of test compounds on basal or acetylcholine-stimulated Ca^2+ levels using FLIPR.
Compounds are prepared and subjected to a preincubation period of 4 min. Thereafter, a single EC20 concentration of acetylcholine is added to each well (3 nM final). The intracellular Ca^2+ level of each sample is measured and compared to an acetylcholine control to determine any modulatory activity.
Cells: CHOnfat/hM1, hM2, hM3 or hM4 cells are plated 24 hr before the assay at a density of 18,000 cells/well (100 μL) in a 384 well plate. CHOnfat/hM1 and CHOnfat/hM3 Growth Medium: 90% DMEM (Hi Glucose); 10% HI FBS; 2 mM L-glutamine; 0.1 mM NEAA; Pen-Strep; and 1 mg/ml Geneticin, are added. For M2Gqi5CHOnfat and M4Gqi5CHOnfat cells, an additional 600 μg/ml hygromycin is added.
Equipment: 384 well plate, 120 μL addition plate; 96-well Whatman 2 ml Uniplate Incubator, 37° C., 5% CO2; Skatron EMBLA-384 Plate Washer; Multimek Pipetting System; Genesis Freedom 200 System; Mosquito System; Temo Nanolitre Pipetting System; and FLIPR^384 Fluorometric Imaging Plate Reader System are used.
Buffers. Assay Buffer: Hanks Balanced Salt Solution, with 20 mM Hepes, 2.5 mM Probenecid (Sigma P-8761) first dissolved in 1N aqueous NaOH, 1% Bovine Serum Albumin (Sigma A-9647). Dye Loading Buffer: Assay Buffer plus 1% Fetal Bovine Serum and Fluo-4AM/Pluronic Acid Mixture. 2 mM Fluo-4AM ester stock in DMSO (Molecular Probes F-14202) Concentration of 2 μM in buffer for a final concentration of 1 μM in Assay. 20% Pluronic Acid Solution stock, with a concentration of 0.04% in Buffer, 0.02% in Assay.
65 μl of 2 mM Fluo-4AM are mixed with 130 μL of 20% Pluronic Acid. The resulting solution and 650 μL FBS is added to the assay buffer for a total volume of 65 mL. Positive Controls: 4-Br-A23187: 10 mM in DMSO; final concentration 10 μM. […]
After 60 min, the cells are washed three times with 100 μL of buffer, leaving 30 μL of buffer in each well. […] A signal test to check background fluorescence and basal fluorescence signal is performed. […]

EC50 [nM] | SMILES
201 | O=C(O)c1cc(Cc2ccc(Cl)cc2)c2ccccn2c1=O [Example 3, 1-(4-Chlorobenzyl)-4-oxo-4H-quinolizine-3-carboxylic acid]
110 | O=C(O)c1cc(Cc2ccc(-c3ccccc3)cc2)c2ccccn2c1=O [Example 4, 1-(Biphenyl-4-ylmethyl)-4-oxo-4H-quinolizine-3-carboxylic acid]
213 | Cn1cc(-c2ccc(Cc3cc(C(=O)O)c(=O)n4ccccc34)nc2)cn1 [Example 5, 1-{[5-(1-Methyl-1H-pyrazol-4-yl)pyridin-2-yl]methyl}-4-oxo-4H-quinolizine-3-carboxylic acid]
